From patent US7199097B1, “Peptide fragments having cell death inhibitory activity” (Juridical Foundation The Chemo-Sero-Therapeutic Research …, priority 1998, dated 2007) come the findings set out here.

Non-standard residues stand in square brackets, D forms with d. Sec = N[C@@H](C[SeH])C(=O)O

Holding throughout (assay type): cell-based, human
Series [1] deals with Dami cells. Nature of the series: Cell death induced by fatty acid in serum free culture of Dami cells. As to conditions: for induction of cell death: 10 μM, serum free culture in the absence of selenoprotein P; for effective concentration inhibiting cell death: in the presence of 4 μM linoleic acid. How it is done:
To 1 ml Dami cells (1×10^6 cells/dish/3 ml), which can be subcultured in serum free medium SFO3 (manufactured by Sanko Jun-yaku K. K.) containing 0.05 μM 2ME and 0.1% BSA, was added 2 ml 1:2:2 mixed medium (SA medium) of RPMI 1640/D-MEM/F-12. The cells were cultured for three days and recovered for assay. The cells were washed twice with SA/0.05% fatty acid free BSA (manufactured by Wako Jun-yaku K. K.) and suspended at 3×10^4 cells/ml in the same medium containing 2 to 16 μM arachidonic acid, linoleic acid or linolenic acid. The cell suspension was added to a 96-well plate in each 198 μl for wells for sample addition or in each 100 μl for wells for serial dilution.
To the wells for sample addition was added each 2 μl of 100 μM assay sample and, after stirring, a serial dilution was made with the wells containing 100 μl cell suspension. The plate was incubated at 37° C. in CO2 incubator for 4 to 5 days.

For series [2], the system named is Dami cells. Kind of series: Comparison with other antioxidants: cell death in serum free culture of Dami cells in the presence of HSA. As to the method:
It was estimated to what extent vitamin E, known as being useful as an antioxidant to lipid oxidation, and catalase, acting for removal of hydrogen peroxide, could inhibit cell death induced in the assay system of the present invention while serum free culture in the presence of HSA.
(§1) To 1 ml Dami cells (1×10^6 cells/dish/3 ml), which can be subcultured in serum free medium SFO3 (manufactured by Sanko Jun-yaku K. K.) containing 0.05 μM 2ME and 0.1% BSA, was added 0.2 ml 1:2:2 mixed medium (SA medium) of RPMI 1640/D-MEM/F-12. The cells were cultured for three days and recovered for assay. The cells were washed twice with 50% PBS/SA/0.03% HSA (manufactured by SIGMA) and suspended in the same medium at 3×10^4 cells/ml. The cell suspension was added to a 96-well plate in each 190 μl for wells for sample addition or in each 100 μl for wells for serial dilution.
To the wells for sample addition was added each 10 μl of assay sample, i.e. 20 μM vitamin E, catalase or the selenoprotein P fragment and, after stirring, a serial dilution was made with the wells containing 100 μl cell suspension. The plate was incubated at 37° C. in CO2 incubator for 4 to 5 days followed by estimation. For estimation, a sample concentration necessary for cell death inhibition was compared to each other on Day 4 and thereafter. […] The selenoprotein P fragment could inhibit cell death up to 60 pM. From the fact that vitamin E did inhibit cell death in the assay system of the present invention, it was estimated that peroxidization of fatty acids bound to HSA (SIGMA) might be responsible for cell death induction. Moreover, it was expected that the selenoprotein P fragment, which inhibited cell death more effectively than vitamin E, would also act much more efficiently to events to which vitamin E was know to be effective.

The test system of series [3] is Dami cells. Nature of the series: Cell death-inhibitory activity in Dami cells, serum free culture with HSA, serial dilution.
From the text: For screening factors having the cell death-inhibitory activity, a culture system needs to be established where cell death is induced. […] A diluted sample of active fractions may be added to this culture system to thereby estimate the cell death-inhibitory activity.
Based on the assay system as described above, the present inventors have aimed at components within the living body, especially those derived from blood, and thoroughly investigated for searching the activity of interest. […] For the purpose of quantification of the cell death-inhibitory activity as used herein, dilution of not more than 100-folds is indicated as “0” while in case of dilution of more than 100-folds, a figure of said dilution per se is used for indicating the activity.
as §1, with “(described in Greenberg S. M. et al., Blood, vol. 72, p. 1968–1977 (1988); 1×10^6” for “(1×10^6”, “2” for “0.2”, “200” for “190”, “dilution. To the wells for sample addition was added 2 μl assay sample and, after stirring, a serial dilution was made with the wells containing 100 μl cell suspension. The plate was incubated at 37° C. in CO2 incubator for 4 to 5 days followed by estimation.” for “dilution.”

As for `CCCCC/C=C\C/C=C\C/C=C\C/C=C\CCCCCC(=O)O` [adrenic acid], the “induction of cell death” value with Dami cells [1] is on record as “induced cell death”.
For the molecule `CCCCC/C=C\C/C=C\C/C=C\C/C=C\CCCC(=O)O` [arachidonic acid], in the series on Dami cells [1], the “induction of cell death” value is “induced cell death”.
Still for that read-out and setting: then `CCCCC/C=C\C/C=C\C/C=C\CCCCCCC(=O)O` [dihomo-γ-linolenic acid], with “induced cell death”; and `CCCCC/C=C\C/C=C\CCCCCCCC(=O)O` [linoleic acid], with “induced cell death”.
For catalase, the “cell death-inhibitory activity (in words)” value in the series with Dami cells [2] (serial dilution from 20 μM sample) is recorded as “no cell death-inhibitory activity”.
Consider docosadienoic acid, for which, in the series on Dami cells [1], the “induction of cell death” value is “induced cell death”.
Take docosatrienoic acid: the “induction of cell death” value in the series on Dami cells [1] is “induced cell death”.
The same measure, in the same setting: under eicosadienoic acid stands “induced cell death”.
With superoxide dismutase, in the series on Dami cells [3] (each 70 μM of the samples), the “cell death-inhibitory activity (in words)” value is listed as “some activity” and the “cell death-inhibitory activity relative to the peptide fragment of the present invention” value is “about 1/100”. For the same molecule, the “cell death-inhibitory activity relative to the peptide fragment of the present invention” value with Dami cells [3] (each 70 μM of the samples, listed as SOD) was 1/100.
As for vitamin E, the “effective concentration inhibiting cell death” value in the series on Dami cells [1] was “about 100 nM”. Moreover, the “inhibition of cell death at 60 nM” value with Dami cells [2] (60 nM) is listed as “could not”. The “sample concentration up to which cell death is inhibited” value in the series with Dami cells [2] (Day 4 and thereafter, serial dilution) was determined as 125 nM.

B1: Full-length selenoprotein P: full-length selenoprotein P prepared from plasma with the antibody affinity column (protein)
chain: ESQDQSSLCKQPPAWSIRDQDPMLNSNGSVTVVALLQAS[Sec]YLCIIEASKLEDLRVKLKKEGYSNISYIVVNHQGISSRLKYTHLKNKVSEHIPVYQQEENQTDVWTLLNGSKDDFLIYDRCGRLVYHLGLPFSFLTFPYVEEAIKIAYCEKKCGNCSLTTLKDEDFCKRVSLATVDKTVETPSPHYHHEHHHNHGHQHLGSSELSENQQPGAPNAPTHPAPPGLHHHHKHKGQHRQGHPENRDMPASEDLQDLQKKLCRKRCINQLLCKLPTDSELAPRS[Sec]CCHCRHLIFEKTGSAIT[Sec]QCKENLPSLCS[Sec]QGLRAEENITESCQ[Sec]RLPPAA[Sec]QISQQLIPTEASAS[Sec]R[Sec]KNQAKK[Sec]E[Sec]PSN
modifications: ends and bridges not checked
As to B1, in the series with Dami cells [3] (Table 3, activity per protein), the Specific activity is below 2500. The molecule also gave an Activity in the series with Dami cells [3] (Table 3, fold dilution up to which cells survive) below 100. In addition, the “cell death-inhibitory activity per proteins compared with the fragment” value in the series on Dami cells [3] (purified with anti-selenoprotein P antibody column) is recorded as “much lower”. Besides, in the series with Dami cells [1], the “effective concentration inhibiting cell death” value is on record as “about 100 nM”.
